Data on 2 compounds can be found in patent publication US8350064B2, “Fluorescent xanthenes and white light fluorophores” (Board of Supervisors of Louisiana State University And …, priority 2006, dated 2013).

The subject of data set [1] is HEp2 cells. Briefly: Cellular imaging of live cells (uptake and localization). In kind it is cell-based. Conditions: fluorescence imaging. The source says: There was a strong signal from the endoplasmic reticulum, and a smaller signal from mitochondria. […] No obvious staining of the plasma membrane was seen. However, since the plasma membrane has a large surface area, a relatively low surface signal might not have been detected. Three different filter sets, DAPI, FITC, and Texas Red, were used to select for wavelengths corresponding to the blue, green, and red emissions of SNAFR-2, respectively. […] However, autofluorescence was minimal with the longer wavelength filter sets, FITC and Texas Red.

The nature of data set [2]: Spectral properties of SNAFR-2 in DMSO and MeOH. In kind it is physicochemical. Conditions: for Φ (quantum yield relative to rhodamine 6G in EtOH, Φ = 1): excitation 514 nm. From the text: The violet-blue emission increased in these organic solvents as compared to buffer. The green emission was attributed to the neutral form. As expected, the emission corresponding to the anionic form decreased in both solvents.

Data set [3] can be described thus: Excited-state pK*a of SNAFR-2 estimated using the Forster equation. In kind it is physicochemical. The source says:
(§1) Most prior organic fluorophores have been limited by a narrow excitation range, which has hindered their use in multiplexing systems with other fluorophores. By contrast, the absorption and excitation spectra of SNAFR-2 allow it to be excited from 260 nm to 600, a range that includes various common laser lines, for example, HeCd at 325 nm, Ar ion at 488 and 514 nm, and HeNe at 543 nm (FIGS. 1A-D). SNAFR-2 is compatible with commercially available filter sets, such as those used in various spectroscopic instruments and fluorescence microscopes. […] The pK*a was calculated as 4.54 or 4.73 at room temperature, determined as pKa-em and pKa-abs, respectively.

A short description of data set [4]: pKa of SNAFR-2 from absorption and emission spectra as a function of pH. In kind it is physicochemical. The note with it: 50 mM phosphate buffer with 0.25% DMSO. Here is the method: SNAFR-2 was dissolved in 50 mM phosphate buffer with 0.25% DMSO. As the pH increased, the absorption band centered at 550 nm increased. We attributed this band to the anionic form (A). Concurrently, the absorption band at ca. 460 nm decreased. We attributed the 460 nm band to the neutral form (N). Four isosbestic points were observed, at 484, 394, 327, and 304 nm. The 484 nm isosbestic point is near the 488 nm Ar ion laser line. Thus ratiometric measurements using SNAFR-2 as a probe may be conducted with an Ar ion laser and common, commercially available filter sets.
FIGS. 1A through 1H depict the spectral properties of 30 μM SNAFR-2 in 50 mM phosphate buffer with 0.25% DMSO at various pH values. The arrows indicate the spectral changes as the pH increased in order: 7, 8, 8.5, 9 and 10. A=anionic form. N=neutral form. FIG. 1A depicts Absorption spectra. The * indicates the positions of isosbestic points. FIGS. 1B-D depict excitation spectra, with emission monitored at 400 nm, 540 nm, and 620 nm respectively. FIGS. 1E-H depict emission spectra with excitations at 325 nm, 488 nm, 514 nm, and 543 nm respectively, wavelengths that correspond to common laser lines. All fluorescence spectra were normalized versus the maximum for each data set.
as §1

A short description of data set [5]: Photobleaching decay of SNAFR-2 in MeOH and fluorescein in 0.1 M NaOH. In kind it is physicochemical. Conditions: SNAFR-2 in MeOH; excitation 488 nm; at least 1800 s; compared with fluorescein in 0.1 M NaOH. The source says: We investigated the photostability of SNAFR-2 in MeOH. […] In MeOH, SNAFR-2 can be excited efficiently at 488 nm, which corresponds to an Ar ion laser line. This wavelength also matches well with the absorbance maximum (λabs=493 nm) of fluorescein in aqueous base. We conducted photostability studies in SNAFR-2 and fluorescein solutions, with the concentration of each selected to have an absorbance of 0.03 at 488 nm. The excitation band-pass was opened to 14 nm, the maximum allowed by the instrument we used. The fluorescence signal was collected using both the S- and T-channels of the instrument. S-channel data were collected through a dual monochromator set to the emission maximum of the particular fluorophore. T-channel data were collected through a 550 nm, long-pass filter. High voltage for the photomultiplier tube (PMT) was set to 950 and 500 V for the S and T channels, respectively. […] Fluorescence intensity was monitored at the emission maximum through a dual monochromator following excitation at 543 nm. […] FIGS. 9A and 9B depict the photobleaching decay of SNAFR-2 in MeOH, and of fluorescein in 0.1 M NaOH, monitored at the emission maximum of each compound (FIG. 9A), or through a 550 nm long-pass filter (FIG. 9B). The fluorescence intensity was normalized for each compound as compared to the intensity at time t=0.

Data set [6] in a line: pKa of SNAFR-6 by absorption and fluorescence titration; aggregation in buffered media. In kind it is physicochemical. The source says:
Both the neutral and anionic forms could be excited simultaneously at wavelengths from ˜420 nm to ˜530 nm, a range that includes both the 488 and 514 nm argon ion laser spectral lines. The neutral emission could be selectively measured by using, for example, an FITC filter set. Also, the anionic form can be selectively excited using a longer excitation wavelength, ˜540 nm to ˜650 nm. Anionic emission can be selectively measured, using, for example, common Texas Red filter sets. SNAFR-6 is thus a versatile fluorophore for ratiometric measurements.

Data set [7] in a line: Fluorescence properties of SNAFR-6 (Stokes shift, quantum yield). In kind it is physicochemical. The source says: The neutral form of SNAFR-6 could be excited from ˜420 nm to ˜530 nm. Its emission was centered at 571 nm. The anionic form could be efficiently excited over a broad range from ˜420 nm to ˜650 nm, with an excitation maximum at 536 nm. The anionic emission ranged from ˜575 nm to ˜850 nm, centered at 733 nm. SNAFR-6 thus has a very large Stokes shift, 197 nm.
FIG. 7 depicts an overlay of the normalized absorption spectrum of SNAFR-6 in 0.1 M NaOH solution, and the NIR emission from its anionic form in phosphate buffer (50 mM, pH 9.3):DMSO 99:1 v/v. The anionic emission at 733 nm was readily excited throughout a ˜200 nm window, a range that includes the common argon ion laser wavelengths of 488 nm and 514 nm. The absorption maximum is located at 536 nm.
The quantum yield of the anionic (NIR) emission of SNAFR-6 in DMSO was 0.09, measured by reference to rhodamine 6G in EtOH. This is a relatively high value for an NIR dye emitting at a wavelength longer than ˜730 nm.

Data set [8] relates to HEp2 cells. The experiment in a line: Cytotoxicity, CellTiter Blue Cell Viability assay. In kind it is cell-based. The note with it: 24 hours, up to 100 μM (FIG. 10), dilutions 10 μM to 1.25 μM. As to the method:
Compound toxicity was tested by plating 7500 HEp2 cells per well on a Costar 96-well plate. Cells were allowed to grow for 48 hours and were then fed medium containing twofold dilutions of SNAFR-6 ranging from 10 μM to 1.25 μM. Also, 0.1% Saponin (Sigma) was used as a […] control. Cells were then incubated for 24 hours. Viability was measured using the CellTiter Blue Cell Viability assay (Promega) as per manufacturer's instructions. The fluorescence signal was detected using an excitation wavelength of 520 nm and emission wavelength of 584 nm. Viability was normalized against a scale in which untreated cells were rated 100%, and cells treated with 0.1% saponin were rated 0%. At the concentrations tested, the cytotoxicity of SNAFR-6 was low.

[9] abbreviates: method 0-0 excitation, room temperature.

“And” between values parts separate entries of the source, which are not always exact repeats. Equal entries are not always repeated. “Also recorded” adds a separate entry of the source.

As for `O=c1ccc2c(-c3ccccc3)c3ccc4cc(O)ccc4c3oc-2c1` [SNAFR-2], the entry into cells result in the data set on HEp2 cells [1] is “readily entered HEp2 cells”. Moreover, the “λem (peak locations in the emission spectra)” value in data set [2] (DMSO) came out at 560 nm; in data set [2] (MeOH) it was 550 nm. Also, the figures for the “Φ (quantum yield relative to rhodamine 6G in EtOH, Φ = 1)” value in data set [2] (DMSO) and in data set [2] (MeOH) were 0.33 and 0.41, respectively. Moreover, the “pK*a value” in data set [3] (across different methods to calculate the excitation frequency) is given as 3.3 to 6.3. Also, the “pKa-abs*” value is given as 5.30 in data set [3] (method 0-0 absorption); 4.73 in data set [3] (setting [9]); 6.34 in data set [3] (method Absorption); 3.54 in data set [3] (method Emission); 6.25 in data set [3] (method Excitation). Further, the “pKa-em*” value is reported as 5.11 in data set [3] (method 0-0 absorption); 4.54 in data set [3] (setting [9]); 6.15 in data set [3] (method Absorption); 3.34 in data set [3] (method Emission); 6.05 in data set [3] (method Excitation). The pKa worked out at 8.48 in data set [4] (Abs, λisobestic 304, λ1/λ2 265/304, 50 mM phosphate buffer, read-out: pKa); 8.54 in data set [4] (Abs, λisobestic 304, λ1/λ2 296/304, 50 mM phosphate buffer, read-out: pKa); 8.48 in data set [4] (Abs, λisobestic 304, λ1/λ2 312/304, 50 mM phosphate buffer, read-out: pKa); 8.54 in data set [4] (Abs, λisobestic 327, λ1/λ2 312/327, 50 mM phosphate buffer, read-out: pKa); 8.51 in data set [4] (Abs, λisobestic 327, λ1/λ2 344/327, 50 mM phosphate buffer, read-out: pKa); 8.51 in data set [4] (Abs, λisobestic 327, λ1/λ2 380/327, 50 mM phosphate buffer, read-out: pKa). Besides, the pKa in data set [4] (Abs, λisobestic 394, λ1/λ2 344/394, 50 mM phosphate buffer, read-out: pKa) worked out at 8.58; in data set [4] (Abs, λisobestic 394, λ1/λ2 380/394, 50 mM phosphate buffer, read-out: pKa), 8.68; in data set [4] (Abs, λisobestic 484, λ1/λ2 469/484, 50 mM phosphate buffer, read-out: pKa), 8.47; in data set [4] (Abs, λisobestic 484, λ1/λ2 511/484, 50 mM phosphate buffer, read-out: pKa), 8.54; in data set [4] (Abs, λisobestic 484, λ1/λ2 543/484, 50 mM phosphate buffer, read-out: pKa), 8.52; in data set [4] (Em, λex 325, λ1/λ2 541/597, 50 mM phosphate buffer, read-out: pKa) it was 8.32. The pKa was 8.32 in data set [4] (Em, λex 325, λ1/λ2 575/597, 50 mM phosphate buffer, read-out: pKa); 8.38 in data set [4] (Em, λex 325, λ1/λ2 627/597, 50 mM phosphate buffer, read-out: pKa); 8.33 in data set [4] (Em, λex 488, λ1/λ2 542/600, 50 mM phosphate buffer, read-out: pKa); 8.36 in data set [4] (Em, λex 488, λ1/λ2 575/600, 50 mM phosphate buffer, read-out: pKa); 8.35 in data set [4] (Em, λex 488, λ1/λ2 630/600, 50 mM phosphate buffer, read-out: pKa); 8.31 in data set [4] (Em, λex 514, λ1/λ2 539/595, 50 mM phosphate buffer, read-out: pKa). Moreover, the pKa is 8.32 in data set [4] (Em, λex 514, λ1/λ2 575/595, 50 mM phosphate buffer, read-out: pKa); 8.34 in data set [4] (Em, λex 514, λ1/λ2 623/595, 50 mM phosphate buffer, read-out: pKa); 8.53 ± 0.06 in data set [4] (absorption spectra, phosphate buffer with 0.25% DMSO, read-out: average pKa-abs); 8.31 to 8.38 in data set [4] (different excitation wavelengths, phosphate buffer with 0.25% DMSO, read-out: pKa values inferred from emission spectra); 8.47 to 8.68 in data set [4] (different isosbestic points, phosphate buffer with 0.25% DMSO, read-out: pKa values calculated from absorption spectra); 8.34 ± 0.02 in data set [4] (emission spectra, phosphate buffer with 0.25% DMSO, read-out: average pKa-em). Moreover, in data set [5], the “photostability (photobleaching decay)” value is given as “far more photostable than fluorescein; also recorded: excellent photostability; also recorded: considerably higher photostability”.

Take `O=c1ccc2c(-c3ccccc3)c3cc4ccc(O)cc4cc3oc-2c1` [SNAFR-6]: the pKa in data set [6] (absorption titration) was determined as 8.18 ± 0.03; in data set [6] (fluorescence titration), 8.1 ± 0.03. Besides, the aggregation entry in data set [6] (buffered media) was “Significant aggregation in buffered media was not seen”. Moreover, the entry into cells result with HEp2 cells [1] is recorded as “readily enters cells”. Also, the “quantum yield of the anionic (NIR) emission” value in data set [7] (DMSO, by reference to rhodamine 6G in EtOH) is recorded as 0.09. The Stokes shift in data set [7] (anionic form, excitation maximum 536 nm, emission 733 nm, aqueous solution) was 197 nm and ~200 nm. Also, the “cytotoxicity (cell viability)” value in the data set with HEp2 cells [8] is “low and low cytotoxicity”.
